Measured values from patent US20090209469A1, “Use of Exendins and GLP-1 Receptor Agonists for Altering Lipoprotein Particle Size and Subclass Composition” (priority 2006, published 2009).

Legend:
[1] = tested on: Patients with type 2 diabetes inadequately controlled by sulphonylurea and metformin; assay: Lipoprotein subclass particle concentrations and average particle diameters by proton NMR spectroscopy, 1-year open-label trial (test meal study); type: in vivo, human; conditions: change from baseline to endpoint (week 52), type 2 diabetes patients
Procedure: In the context of the present invention, lipoprotein concentrations are measured according to standard nuclear magnetic resonance techniques, where the measured amplitudes of characteristic lipid methyl group signals provide particle concentrations.
In the context of the present invention, lipoprotein subclass particle concentrations and average particle diameters are measured using proton nuclear magnetic resonance spectroscopy using the algorithm of LipoScience, Inc. See e.g., Festa et al., Nuclear Magnetic Resonance Lipoprotein Abnormalities in Prediabetic Subjects in the Insulin Resistance Artherosclerosis Study, Circulation, 111:3465-3472 (2005). […]
Lipoprotein subclass particle concentrations and average particle diameters are measured using proton nuclear magnetic resonance spectroscopy. See e.g., Festa et at., Nuclear Magnetic Resonance Lipoprotein Abnormalities in Prediabetic Subjects in the Insulin Resistance Artherosclerosis Study, Circulation, 111:3465-3472 (2005).
The particle concentrations of different lipoprotein subclasses are obtained by measuring the amplitudes of the characteristic lipid methyl NMR signals. The signal amplitudes of various subclasses are extracted from the overall lipid methyl group signal with a spectral deconvolution algorithm (Lipo Science, Inc.). See e.g., Festa. VLDL and LDL particle concentrations are given in nanomoles per liter. HDL particle concentrations are provided in micromoles per liter.
Average particle sizes (in nanometers diameter) are computed as the sum of the diameter of the particle subclass multiplied by the relative mass percentage of the subclass as estimated from the amplitude of its methyl NMR signal.
Particle concentrations and sizes are compared before and after administration of an exendin or exendin agonist. See e.g., Table 1.

[2] = tested on: Patients with type 2 diabetes inadequately controlled by sulphonylurea and metformin; assay: Fibrinogen concentration by the von Clauss clotting method; type: in vivo, human; conditions: type 2 diabetes patients
Procedure: For test meal data, postprandial glucose incremental AUC0-4h is calculated at baseline and week 52.
Fibrinogen activity is measured by the von Clauss clotting method. By the von Clauss clotting method, thrombin is added to a test sample and the time until clotting is measured. Fibrinogen concentration is determined by comparing clotting time for the test sample to the clotting time of a standard curve for various reference plasmas.
Fibrinogen is measured at baseline, Week 16, Week 52, or at early termination of the study.

Substance: biphasic insulin aspart 30/70
- HDL Particle Size, Δ mean [1]: +0.04 nm
- VLDL Particle Size, Δ mean [1]: −1.6 nm
- LDL Particle Size, Δ mean ([1]; exenatide 5 μg BID 4 weeks then 10 μg BID 48 weeks vs biphasic insulin aspart 30/70): +0.11 nm
- Large HDL, Δ mean ([1]; particle concentration): +1.0 μmol/L
- Large LDL, Δ mean ([1]; particle concentration): +37.7 nmol/L
- Small LDL, Δ mean ([1]; particle concentration): -25.8 nmol/L
- Small VLDL, Δ mean ([1]; particle concentration): +8.5 nmol/L
- Total HDL, Δ mean ([1]; particle concentration): +2.5 μmol/L
- Total LDL, Δ mean ([1]; particle concentration): +5.0 nmol/L
- Total VLDL, Δ mean ([1]; particle concentration): +12.9 nmol/L
- Very Small LDL, Δ mean ([1]; particle concentration): -17.0 nmol/L
- Fibrinogen level, mean, Baseline ([2]; baseline, before treatment): 4.22 g/L
- Fibrinogen level, mean, Endpoint (LOCF) ([2]; endpoint, last post-baseline measurement carried forward (Week 16, Week 52 or early termination)): 4.16 g/L
